Measurements taken from ChEMBL document CHEMBL4043162, “Synthesis of novel flavonoid alkaloids as α-glucosidase inhibitors” (Bioorg Med Chem, 2017).
Activity calls are given as the source filed them. The rule behind the calls is not given here.

Assays:
[1] = Inhibition of Saccharomyces cerevisiae alpha-glucosidase pre-incubated for 15 mins before p-nitrophenyl-alpha-D-glucopyranoside substrate addition and measured after 30 mins by UV spectrometry
[2] = Non-competitive inhibition of Saccharomyces cerevisiae alpha-glucosidase pre-incubated for 15 mins before p-nitrophenyl-alpha-D-glucopyranoside substrate addition and measured after 30 mins by UV spectrometry based Dixon plot
[3] = tested on: Saccharomyces cerevisiae; assay: Non-competitive inhibition of Saccharomyces cerevisiae alpha-glucosidase pre-incubated for 15 mins before p-nitrophenyl-alpha-D-glucopyranoside substrate addition and measured after 30 mins by UV spectrometry based Lineweaver-Burk plot

| IC50 [1] [µM] | Ki [2] [µM] | inhibition [3] | Compound |
| --- | --- | --- | --- |
| > 500 | – | – | CCOC(=O)N1CCN(Cc2c(O)cc3oc(-c4ccccc4)cc(=O)c3c2O)CC1 |
| > 500 | – | – | O=c1cc(-c2ccccc2)oc2c(CN3CCN(CCO)CC3)c(O)cc(O)c12 |
| > 500 | – | – | CCOC(=O)N1CCN(Cc2c(O)c(CN3CCN(C(=O)OCC)CC3)c3oc(-c4ccccc4)cc(=O)c3c2O)CC1 |
| 23.4 | 37.8 | Active | O=C1CC(c2ccc(O)cc2)Oc2cc(O)c(CN3CCc4ccccc4C3)c(O)c21 (configuration not stated) |
| 82.8 | – | – | O=C1CC(c2ccc(O)cc2)Oc2cc(O)c(CN3CCCCC3)c(O)c21 (configuration not stated) |
| > 500 | – | – | O=c1cc(-c2ccccc2)oc2c(C3CCCCN3)c(O)cc(O)c12 (configuration not stated) |
| > 500 | – | – | O=c1cc(-c2ccccc2)oc2cc(O)c(CN3CCc4ccccc4C3)c(O)c12 |
| 65.1 | – | – | CCOC(=O)N1CCN(Cc2c(O)cc3c(c2O)C(=O)CC(c2ccc(O)cc2)O3)CC1 (configuration not stated) |
| 521 | – | – | O=C1CC(c2ccc(O)cc2)Oc2cc(O)c(CN3CCN(CCO)CC3)c(O)c21 (configuration not stated) |
| 249 | – | – | O=C1CC(c2ccc(O)cc2)Oc2cc(O)c(C3CCCCN3)c(O)c21 (configuration not stated) |
| > 500 | – | – | COc1ccc(-c2coc3c(CN4CCCCC4)c(O)ccc3c2=O)cc1 |
| > 500 | – | – | O=c1cc(-c2ccccc2)oc2cc(O)c(CN3CCN(CCO)CC3)c(O)c12 |
| > 500 | – | – | O=c1cc(-c2ccccc2)oc2cc(O)c(CN3CCOCC3)c(O)c12 |
| 217 | – | – | CCN(CC)Cc1c(O)cc2oc(-c3ccccc3)cc(=O)c2c1O |
| 202 | – | – | O=C1CC(c2ccc(O)cc2)Oc2cc(O)c(CN3CCOCC3)c(O)c21 (configuration not stated) |
| 293 | – | – | O=c1cc(-c2ccc(O)cc2)oc2cc(O)c(C3CCCCN3)c(O)c12 (configuration not stated) |
| > 500 | – | – | O=c1cc(-c2ccccc2)oc2cc(O)c(C3CCCCN3)c(O)c12 (configuration not stated) |
| > 500 | – | – | O=C1c2c(cc(O)c(C3CCCCN3)c2O)OC(c2ccc(O)c(O)c2)C1O (configuration not stated) |
| > 500 | – | – | Oc1ccc(C2CCc3c(O)cc(O)c(C4CCCCN4)c3O2)cc1 (configuration not stated) |
| > 500 | – | – | COc1ccc(C2CC(=O)c3c(cc(O)c(C4CCCCN4)c3O)O2)cc1O (configuration not stated) |
| 4.1 | 13.2 | Active | CCOC(=O)c1ccc(N2CCN(Cc3c(O)cc4c(c3O)C(=O)CC(c3ccc(O)cc3)O4)CC2)cc1 (configuration not stated) |
| > 500 | – | – | O=c1cc(-c2ccccc2)oc2cc(O)c(CN3CCCCC3)c(O)c12 |
| > 500 | – | – | Oc1ccc(C2CCc3c(cc(O)c(C4CCCCN4)c3O)O2)cc1 (configuration not stated) |
